Several values for one entry are separate records, joined by “and”; a condition that tells them apart may be missing. Identical values can stand only once. Toxic doses and inconclusive results are not listed.
System: P388 leukemia ip, CD2F1 mice, survival T/C
Experiment: NCI In Vivo Anticancer Drug Screen. Data for tumor model P388 Leukemia (intraperitoneal) in CD2F1 (CDF1) mice
Conditions: endpoint: median survival time, higher = longer survival
Outline: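 Mice carrying the transplanted tumor received test compound or vehicle. Survival was recorded in each group, and the value is the treated-group measurement divided by that of the vehicle-treated control group.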

[1] = dose: 50.0 mg/kg/injection, schedule: Q01DX009 (ip), vehicle: Klucel (hydroxypropylcellulose) (HPC)
[2] = dose: 100.0 mg/kg/injection, schedule: Q01DX009 (ip), vehicle: Klucel (hydroxypropylcellulose) (HPC)
[3] = dose: 200.0 mg/kg/injection, schedule: Q01DX009 (ip), vehicle: Klucel (hydroxypropylcellulose) (HPC)
[4] = dose: 12.5 mg/kg/injection, schedule: Q01DX005 (ip), vehicle: Klucel (hydroxypropylcellulose) (HPC)
[5] = dose: 25.0 mg/kg/injection, schedule: Q01DX005 (ip), vehicle: Klucel (hydroxypropylcellulose) (HPC)
[6] = dose: 50.0 mg/kg/injection, schedule: Q01DX005 (ip), vehicle: Klucel (hydroxypropylcellulose) (HPC)
[7] = dose: 50.0 mg/kg/injection, schedule: Q01DX005 (ip), vehicle: saline with Tween-80
[8] = dose: 100.0 mg/kg/injection, schedule: Q01DX005 (ip), vehicle: saline with Tween-80
[9] = dose: 200.0 mg/kg/injection, schedule: Q01DX005 (ip), vehicle: saline with Tween-80
[10] = dose: 100.0 mg/kg/injection, schedule: Q01DX001 (ip), vehicle: saline with Tween-80
[11] = dose: 200.0 mg/kg/injection, schedule: Q01DX001 (ip), vehicle: saline with Tween-80
[12] = dose: 400.0 mg/kg/injection, schedule: Q01DX001 (ip), vehicle: saline with Tween-80
[13] = dose: 12.5 mg/kg/injection, schedule: Q01DX009 (ip), vehicle: Klucel (hydroxypropylcellulose) (HPC)
[14] = dose: 100.0 mg/kg/injection, schedule: Q01DX009 (ip), vehicle: saline
[15] = dose: 200.0 mg/kg/injection, schedule: Q01DX009 (ip), vehicle: saline

For `Cc1ccc(CCN(S(=O)(=O)c2ccc(C)cc2)S(=O)(=O)c2ccc(C)cc2)cc1`, the T/C [1] was 92 % of control, the T/C [2] was 96 % of control and the T/C [3] was 86 % of control.
In the case of `CC(C)N(C(C)C)P1N(C(C)(C)C)N=NN1C(C)(C)C`, the T/C [4] is reported as 102 % of control, the T/C [5] is reported as 100 % of control and the T/C [6] is reported as 102 % of control and 107 % of control.
With `CSC(=S)NNC(C)c1nccc2ccccc12` (configuration not stated) the T/C [7] was 109 % of control, the T/C [8] was 114 % of control and the T/C [9] was 108 % of control.
In the case of `CCOC(=O)c1c(SCC)c(C=C(C(C)=O)C(C)=O)c2ccccn12`, the T/C [10] is reported as 99 % of control, the T/C [11] is reported as 95 % of control and the T/C [12] is reported as 89 % of control.
For `FC(F)(F)c1ccccc1NC(=S)Nc1ccc(I)cc1`, the T/C (dose: 50.0 mg/kg/injection, schedule: Q01DX009 (ip), vehicle: gum acacia) was 92 % of control, the T/C (dose: 100.0 mg/kg/injection, schedule: Q01DX009 (ip), vehicle: gum acacia) was 92 % of control and the T/C (dose: 200.0 mg/kg/injection, schedule: Q01DX009 (ip), vehicle: gum acacia) was 89 % of control.
For `C=C(C)C(=O)OCCO` (tested in a mixture with another compound), the T/C (dose: 100.0 mg/kg/injection, schedule: Q01DX009 (ip), vehicle: saline with Tween-80) was 100 % of control, the T/C (dose: 200.0 mg/kg/injection, schedule: Q01DX009 (ip), vehicle: saline with Tween-80) was 100 % of control and the T/C (dose: 400.0 mg/kg/injection, schedule: Q01DX009 (ip), vehicle: saline with Tween-80) was 100 % of control.
With `Nc1ccn(C2OC(CCl)C(O)C2O)c(=O)n1` (configuration not stated) the T/C (dose: 6.25 mg/kg/injection, schedule: Q01DX009 (ip), vehicle: Klucel (hydroxypropylcellulose) (HPC)) was 101 % of control, the T/C [13] was 106 % of control and the T/C [2] was 172 % of control. For the same molecule, the T/C [14] was 154 % of control, the T/C [3] was 186 % of control and the T/C [15] was 164 % of control. For the same molecule, the T/C (dose: 400.0 mg/kg/injection, schedule: Q01DX009 (ip), vehicle: saline) was 177 % of control.
With `COc1cc(C)c(/C(=N/O)n2nnc(-c3ccc(Cl)cc3)n2)c(C)c1` the T/C [10] was 123 % of control, the T/C [11] was 114 % of control and the T/C [12] was 95 % of control.
For `COc1ccc2c3c([nH]c2c1)C(C)N(S(=O)(=O)c1ccccc1)CC3` (configuration not stated), the T/C [4] was 98 % of control, the T/C [5] was 92 % of control and the T/C [6] was 98 % of control. For the same molecule, the T/C (dose: 100.0 mg/kg/injection, schedule: Q01DX005 (ip), vehicle: Klucel (hydroxypropylcellulose) (HPC)) was 98 % of control and the T/C (dose: 200.0 mg/kg/injection, schedule: Q01DX005 (ip), vehicle: Klucel (hydroxypropylcellulose) (HPC)) was 93 % of control.
For `CC12CCC(c3sc(N)c(C#N)c31)C2(C)C` (configuration not stated), the T/C [13] was 114 % of control, the T/C (dose: 25.0 mg/kg/injection, schedule: Q01DX009 (ip), vehicle: Klucel (hydroxypropylcellulose) (HPC)) was 104 % of control and the T/C [1] was 104 % of control.
For `CCn1c2ccccc2c2cc(NC(=O)Nc3ccc4c(c3)c3ccccc3n4CC)ccc21`, the T/C [7] was 90 % of control, the T/C [8] was 97 % of control and the T/C [9] was 109 % of control.
`CN1CCN(CC(O)COc2c3ccccc3nc3ccccc23)CC1` (configuration not stated) was tested, and the T/C [7] was 104 % of control and the T/C [8] was 95 % of control.
With `CSc1nnc2n(N)cnn12` the T/C (dose: 100.0 mg/kg/injection, schedule: Q04DX002 (ip), vehicle: water) was 107 % of control, the T/C (dose: 200.0 mg/kg/injection, schedule: Q04DX002 (ip), vehicle: water) was 106 % of control and the T/C (dose: 400.0 mg/kg/injection, schedule: Q04DX002 (ip), vehicle: water) was 106 % of control.
For `NC(=S)N/N=C/C=N/NC(N)=S`, the T/C (dose: 50.0 mg/kg/injection, schedule: Q01DX009 (ip), vehicle: saline) was 92 % of control, the T/C [14] was 90 % of control and the T/C [15] was 101 % of control.

— PubChem BioAssay AID330 (DTP/NCI, 2004)
